Measured values from ChEMBL document CHEMBL1141473, “Tricyclic HIV integrase inhibitors: potent and orally bioavailable C5-aza analogs” (Bioorg Med Chem Lett, 2008).
In brackets after ≈: the same amount, converted by molar mass.

Tests used:
[1] = Inhibition of HIV integrase strand transfer activity; design: species or system Human immunodeficiency virus
[2] = system: Human immunodeficiency virus; test: Antiviral activity against HIV in MT2 cells in presence of 35 mg/mL human serum albumin; type: functional, organism-based; conditions: Human immunodeficiency virus 1, MT2
[3] = system: Human immunodeficiency virus 1; test: Antiviral activity against HIV1 3B in MT2 cells after 5 days; type: functional, organism-based; conditions: Human immunodeficiency virus 1, 3B, MT2, 120 h
[4] = Aqueous solubility at pH 7.3; type: physicochemical
[5] = Oral bioavailability in rat; type: ADME, organism-based; conditions: in vivo
[6] = Half life in iv dosed rat; type: ADME, organism-based; conditions: in vivo
[7] = Total clearance in iv dosed rat; type: ADME, organism-based; conditions: in vivo
[8] = Oral bioavailability in dog; type: ADME, organism-based, Canis lupus familiaris; conditions: in vivo
[9] = Half life in iv dosed dog; type: ADME, organism-based, Canis lupus familiaris; conditions: in vivo
[10] = Total clearance in iv dosed dog; type: ADME, organism-based, Canis lupus familiaris; conditions: in vivo

Row | Structure (SMILES) | IC50 [1] | EC50 [2] | EC50 [3] | solubility [4] | bioavailability [5] | half-life [6] | clearance [7] | bioavailability [8] | half-life [9] | clearance [10]
1 | O=C1c2c(c(C(=O)N3CCOCC3)c3cccnc3c2O)CN1Cc1ccc(F)cc1 | 50 nM | 54 nM | – | – | – | – | – | – | – | –
2 | Cc1nnc(C(=O)NC(C)(C)c2nc(C(=O)NCc3ccc(F)cc3)c(O)c(=O)n2C)o1 | 27 nM | – | 6 nM | – | – | – | – | – | – | –
3 | O=C1c2c(c(N3CCCS3(=O)=O)c3cccnc3c2O)CN1Cc1ccc(F)cc1 | 13 nM | 49 nM | 1.4 nM | 2.8 µM (≈ 1.2 µg/mL) | 4% | 36 min | 25.5 mL/min/kg | 8.3% | 48 min | 5 mL/min/kg

Second part, the compound after the results:

Row | IC50 [1] | EC50 [2] | EC50 [3] | solubility [4] | bioavailability [5] | half-life [6] | clearance [7] | bioavailability [8] | half-life [9] | clearance [10] | Structure (SMILES)
4 | 100 nM | – | 47 nM | – | – | – | – | – | – | – | CC(=O)N(C)c1c2c(c(O)c3ncccc13)C(=O)N(Cc1ccc(F)cc1)C2
5 | 71 nM | – | 10 nM | 844 µM (≈ 345 µg/mL) | – | – | – | – | – | – | CN(C)C(=O)N(C)c1c2c(c(O)c3ncccc13)C(=O)N(Cc1ccc(F)cc1)C2
6 | 265 nM | – | 31 nM | – | – | – | – | – | – | – | CN(C)C(=O)C(=O)N(C)c1c2c(c(O)c3ncccc13)C(=O)N(Cc1ccc(F)cc1)C2
7 | 62 nM | 8.4 nM | 3.1 nM | 4.5 µM (≈ 2 µg/mL) | 13% | 54 min | 3.83 mL/min/kg | 16% | 270 min | 5.67 mL/min/kg | CN(C)S(=O)(=O)N(C)c1c2c(c(O)c3ncccc13)C(=O)N(Cc1ccc(F)cc1)C2
